Experiment: Tensile load required to break hair fibers (break load)
Method: A commercial rinse-off conditioner formulation was used as a control vehicle for the study. An active formulation was prepared by adding 1% (w/w) of TDPA to the control vehicle. Three samples of treated hair were prepared: untreated, treatment with the control vehicle, and treatment with the control vehicle plus 1% TDPA. The treatments were applied to hair tresses that had been previously damaged by artificially color with an oxidative dye. The treatments were repeated five times. The overall condition of the hair fibers was determined by measuring the tensile load required to break the fibers and the results of 30 fibers were averaged. […] In stark contrast, the active formula, having 1% TDPA, gave a break load of about 82 gm. This correlates to an improvement in the tensile strength of about 20%. The formulas used in the testing protocol were as follows: […]

For `O=C(O)CCSCCC(=O)O` [TDPA, 3,3′-thiodipropionic acid], the “improvement in the tensile strength” value (active formula with 1% TDPA (about 82 gm), untreated hair about 68 gm, control vehicle about 73 gm) was “about 20%” and the “break load (tensile load required to break the fibers)” value (active formula: commercial rinse-off conditioner control vehicle plus 1% (w/w) TDPA, treatments repeated five times, results of 30 fibers averaged, FIG. 1) was “about 82 gm”.

Source: US10874598B2, “Compositions and methods for treating damaged hair” (AVON PRODUCTS, INC., priority 2013, dated 2020)
